By IC50 is commonly meant the midpoint of a concentration-inhibition curve.

Our source for the IC50 values is patent US10059701B2 (Merck Patent GmbH, priority 2015, dated 2018).

In assay [1] the target is T1, IRAK1 (Homo sapiens, UniProt P51617).
T1 construct: His-TEV-IRAK1 (194-712); His (N); TEV cleavage site (N)
The assay is described as follows: IRAK1 enzymatic assay (ADP-Glo luminescence). The class given is biochemical. The following applies: purified human recombinant His-TEV-IRAK1 (194-712). In short, it runs like this: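 Recombinant human His-TEV-IRAK1 (194-712), 0.3 μg/ml, preincubated 15 min at RT with compounds (10 μM to 0.5 nM) in 50 mM Hepes pH 7.0, 10 mM MgCl2, 2 mM DTT, 0.1% BSA. ATP-started reaction run 2 hours at RT; ADP formed from ATP hydrolysis/autophosphorylation read by ADP-Glo luminescence.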
For orientation: ADP-Glo first removes unused ATP, then detects ADP through luciferase.

Assay [2] concerns the target T2, IRAK4 (Homo sapiens, UniProt Q9NWZ3).
T2 construct: His-TEV-IRAK4 (1-460); His (N); TEV cleavage site (N)
T2 sequence (Q9NWZ3 1-460): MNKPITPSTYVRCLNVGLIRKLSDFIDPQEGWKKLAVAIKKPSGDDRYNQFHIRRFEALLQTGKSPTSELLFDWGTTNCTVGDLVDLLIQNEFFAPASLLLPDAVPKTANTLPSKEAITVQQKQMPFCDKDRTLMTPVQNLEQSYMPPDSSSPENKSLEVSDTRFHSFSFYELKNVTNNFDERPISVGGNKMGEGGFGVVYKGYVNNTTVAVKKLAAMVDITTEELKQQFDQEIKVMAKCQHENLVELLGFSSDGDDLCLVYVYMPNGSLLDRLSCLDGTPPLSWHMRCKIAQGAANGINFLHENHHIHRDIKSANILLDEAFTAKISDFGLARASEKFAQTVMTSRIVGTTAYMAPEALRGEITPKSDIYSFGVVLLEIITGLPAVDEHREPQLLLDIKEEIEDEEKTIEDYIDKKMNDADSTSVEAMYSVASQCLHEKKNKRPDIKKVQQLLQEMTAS
The assay is described as follows: IRAK4 enzymatic assay (ADP-Glo luminescence). The class given is biochemical. The following applies: purified human recombinant His-TEV-IRAK4 (1-460), ATP 2 μM. In outline:
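Recombinant His-TEV-IRAK4 (1-460) at 0.3 μg/ml preincubated 15 min at RT with compounds (10 μM to 0.5 nM) in Hepes pH 7.0 buffer with MgCl2/MnCl2. Reaction started with 2 μM ATP and 300 nM STK1-biotin peptide, run 2 h at RT. ADP formed read by ADP-Glo luminescence.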

T1 sequence (P51617 194-712): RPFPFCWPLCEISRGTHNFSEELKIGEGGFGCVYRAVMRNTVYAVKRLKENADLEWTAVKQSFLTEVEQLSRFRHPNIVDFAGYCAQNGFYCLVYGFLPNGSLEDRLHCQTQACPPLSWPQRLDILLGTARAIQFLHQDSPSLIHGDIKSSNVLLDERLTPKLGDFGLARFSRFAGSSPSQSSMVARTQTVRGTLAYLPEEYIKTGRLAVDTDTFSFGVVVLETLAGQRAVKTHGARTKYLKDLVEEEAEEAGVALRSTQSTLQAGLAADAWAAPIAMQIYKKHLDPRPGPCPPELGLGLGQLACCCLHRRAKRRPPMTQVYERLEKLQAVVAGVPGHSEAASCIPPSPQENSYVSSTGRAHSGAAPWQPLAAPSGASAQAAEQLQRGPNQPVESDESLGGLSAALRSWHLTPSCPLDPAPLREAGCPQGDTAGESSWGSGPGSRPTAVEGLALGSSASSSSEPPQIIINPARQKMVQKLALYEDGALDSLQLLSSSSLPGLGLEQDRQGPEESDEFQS

Consider `O=C(/N=c1\[nH]c2cc(N3CCCOC3=O)ccc2n1CC1(F)CCOCC1)c1cccc(C(F)F)c1` [Example 228, (E)-3-(difluoromethyl)-N-(1-((4-fluorotetrahydro-2H-pyran-4-yl)methyl)-5-(2-oxo-1,3-oxazinan-3-yl)-1H-benzo[d]imidazol-2(3H)-ylidene)benzamide], for which the results for the IC50 in assay [1] and in assay [2] were 100 to 1000 nM and at most 100 nM, respectively.
The matching figures for `O=C(/N=c1\[nH]c2cc(N3CCCOC3=O)ccc2n1CC1(F)CCOCC1)c1cccc(C(F)(F)F)c1` [Example 229, (E)-N-(1-((4-fluorotetrahydro-2H-pyran-4-yl)methyl)-5-(2-oxo-1,3-oxazinan-3-yl)-1H-benzo[d]imidazol-2(3H)-ylidene)-3-(trifluoromethyl)benzamide]: 100 to 1000 nM and at most 100 nM.
The matching figures for `N#Cc1cccc(C(=O)/N=c2\[nH]c3cc(N4CCCOC4=O)ccc3n2CC2(F)CCOCC2)c1` [Example 230, (E)-3-cyano-N-(1-((4-fluorotetrahydro-2H-pyran-4-yl)methyl)-5-(2-oxo-1,3-oxazinan-3-yl)-1H-benzo[d]imidazol-2(3H)-ylidene)benzamide]: 100 to 1000 nM and at most 100 nM.
Regarding `CC(=O)c1cccc(C(=O)/N=c2\[nH]c3cc(N4CCOCC4=O)ccc3n2CCCO)c1` [Example 231, (E)-3-acetyl-N-(1-(3-hydroxypropyl)-5-(3-oxomorpholino)-1H-benzo[d]imidazol-2(3H)-ylidene)benzamide], the values for the IC50 in assay [1] and in assay [2] were 100 to 1000 nM and at most 100 nM, respectively.
Regarding `O=C(/N=c1\[nH]c2cc(N3CCOCC3=O)ccc2n1CCCO)c1ccc2scnc2c1` [Example 232, (E)-N-(1-(3-hydroxypropyl)-5-(3-oxomorpholino)-1H-benzo[d]imidazol-2(3H)-ylidene)benzo[d]thiazole-5-carboxamide], the values for the IC50 in assay [1] and in assay [2] were over 1000 nM and at most 100 nM, respectively.
